Data published in patent US12195452B2, “N-(4-(oxazol-5-yl)phenyl) chromane-3-carboxamide derivatives and related compounds as stimulators of the production of retinal precursor cells for the treatment of neuroretinal diseases” (ENDOGENA THERAPEUTICS, INC., priority 2018, dated 2025).

Test system: retinal precursor cells
Assay: Sphere passaging and high-throughput drug screening: proliferation of retinal precursor cells from the ciliary epithelium, cell number after one week
Type: cell-based, mammalian
Conditions: for Cell proliferation within one week [%]: control experiment (absence of a compound) = 100, cells grown for one week; for increase of cell proliferation: within one week, over control
Protocol: Kynurenic Acid (0.2 mg/mL), trypsin (1.33 mg/mL), and hyaluronidase (0.67 mg/mL) were weighed out and dissolved in high magnesium/low calcium artificial cerebral spinal fluid (aCSF) at 37° C. Fibroblast growth factor 2 (FGF2; 10 ng/mL) and heparin (2 μg/mL) were added to 100 mL of serum-free media (SFM). Ovomucoid trypsin inhibitor (1 mg/mL) was dissolved in warm SFM and sterile filtered ([…]).
A dissecting microscope, cold light source, and sterile surgical instruments were set up inside of a sterile biological safety cabinet (BSC). Mammalian eyes were enucleated and placed in a petri dish containing cold, sterile aCSF. Under the dissecting microscope, hair, connective tissue, and the dorsal and ventral oblique muscles were cleared from the scleral/corneal border with two sets of forceps. Next, curved or angled micro-dissecting scissors were used to cleave any remaining extraocular muscle tissue, the optic nerve, and cut the eyeball into symmetrical halves; beginning and finishing the cut from the hole left by the optic nerve. Using two sets of forceps to grasp the cornea, the two eye halves were peeled apart. The lens, optic nerve, and vitreous were separated from the eye shells and the eye shells were transferred into a new petri dish (also containing cold, sterile aCSF). To isolate the ciliary epithelium (CE), eye shells were oriented with the cornea on the right and retinal pigmented epithelium (RPE) on the left. A pair of straight forceps were used to pin down the eye shell on the RPE side while a scalpel blade was inserted between the CE and the iris, using pressure to slice the iris/cornea side off from the rest of the shell. Next, the scalpel was run along the border between the CE and the RPE to obtain the CE isolated as a thin strip of tissue. The CE strips were then transferred to a 35 mm dish containing 2 mL of dispase solution (Sigma; T1005) and incubated for 10 minutes at 37° C. Next, the strips were transferred from dispase into a 35 mm dish containing 2 mL of sterile filtered kynurenic acid, trypsin and hyaluronidase solution and incubated at 37° C. for 10 minutes. After incubation, the dish was returned to the dissecting scope, and the CE strips were pinned down with straight, non-serrated forceps, while non-serrated curved forceps were used to scrape the CE off from the underlying sclera. The bare scleral strips were then discarded, such that only the CE cells remained in the enzyme solution. Using a fire-polished, cotton-plugged glass pipette, the cells and enzyme solution were transferred to a 15 mL tube and triturated approximately 45 times to break apart the tissue. The 15 mL tube/cell suspension was centrifuged for 5 minutes at 1500 rpm. The supernatant was gently aspirated from the resulting pellet using a fire-polished, cotton-plugged glass pipette and 2 mL of trypsin inhibitor solution was added to the pellet. Using a small borehole, fire-polished, cotton-plugged glass pipette, the sample was triturated approximately 45 times until it was a single-cell suspension. The 15 mL tube/cell suspension was centrifuged for 5 minutes at 1500 rpm. The supernatant was gently aspirated from the resulting pellet and 1-2 mL of SFM with FGF2 and heparin (plating media) was added. The cells and media were mixed to ensure a uniform cell suspension and a 10 uL sample was taken and cell density was determined. The cells were then seeded and cultured at 10c/μL in culture-treated plates or flasks. After one week, roughly 1 in 500 cells proliferated to form free-floating, clonal spheres greater than 80 μm in diameter.
Human-derived spheres were passaged using the kynurenic acid, trypsin, hyaluronidase enzyme solution with the addition of collagenase I (0.5 mg/mL), collagenase II (0.5 mg/mL) and elastase (0.1 mg/mL). Mouse-derived spheres were passaged using hyaluronidase (0.67 mg/mL), collagenase I (0.5 mg/mL), and collagenase II (0.5 mg/mL) dissolved in Accustase solution (Sigma; SCR005). […]

Compound | Cell proliferation within one week [%] | increase of cell proliferation [%]
O=C(Nc1ccc(-c2cnco2)c(Cl)c1)C1COc2ccccc2C1 (racemic) [Compound 1, N-(3-chloro-4-(1,3-oxazol-5-yl)phenyl) chromane-3-carboxamide] | 179 | 79
O=C(Nc1ccc(-c2cnco2)c(Cl)c1)C1CCOc2ccccc21 (racemic) [Compound 2, N-(3-chloro-4-(oxazol-5-yl)phenyl) chromane-4-carboxamide] | 128 | 
COc1ccc2c(c1)CC(C(=O)Nc1ccc(-c3cnco3)c(Cl)c1)CO2 (racemic) [Compound 3, N-(3-chloro-4-(oxazol-5-yl)phenyl)-6-methoxychromane-3-carboxamide] | 138 | 
O=C(Nc1ccc(-c2cnco2)c(F)c1)C1CCOc2ccccc21 (racemic) [Compound 4, N-(3-fluoro-4-(oxazol-5-yl)phenyl)chromane-4-carboxamide] | 106 | 
O=C(Nc1ccc(-c2cnco2)c(F)c1)C1COc2ccccc2C1 (racemic) [Compound 5, N-(3-fluoro-4-(oxazol-5-yl)phenyl)chromane-3-carboxamide] | 133 | 
O=C(Nc1ccc(-c2cnco2)c(Cl)c1)C1COc2ccccc2O1 (racemic) [Compound 6, N-(3-chloro-4-(oxazol-5-yl)phenyl)-2,3-dihydrobenzo[b][1,4]dioxine-2-carboxamide] | 120 | 
COc1ccc2c(c1)OC(C(=O)Nc1ccc(-c3cnco3)c(F)c1)CO2 (racemic) [Compound 7, N-(3-fluoro-4-(oxazol-5-yl)phenyl)-7-methoxy-2,3-dihydrobenzo[b][1,4]dioxine-2-carboxamide] | 123 | 
COc1ccc2c(c1)OC(C(=O)Nc1ccc(-c3cnco3)c(Cl)c1)CO2 (racemic) [Compound 8, N-(3-chloro-4-(oxazol-5-yl)phenyl)-7-methoxy-2,3-dihydrobenzo[b][1,4]dioxine-2-carboxamide] | 117 | 
O=C(Nc1ccc(-c2cnco2)c(F)c1)C1COc2ccccc2O1 (racemic) [Compound 9, N-(3-fluoro-4-(oxazol-5-yl)phenyl)-2,3-dihydrobenzo[b][1,4]dioxine-2-carboxamide] | 118 | 
COc1ccc2c(c1)CC(C(=O)Nc1ccc(-c3cnco3)c(F)c1)CO2 (racemic) [Compound 10, N-(3-fluoro-4-(oxazol-5-yl)phenyl)-6-methoxychromane-3-carboxamide] | 121 | 
COc1cc(NC(=O)C2CCOc3ccccc32)ccc1-c1cnco1 (racemic) [Compound 11, N-(3-methoxy-4-(oxazol-5-yl)phenyl) chromane-4-carboxamide] | 140 | 40
COc1cc(NC(=O)C2COc3ccccc3C2)ccc1-c1cnco1 (racemic) [Compound 12, N-(3-methoxy-4-(oxazol-5-yl)phenyl) chromane-3-carboxamide] | 230 | 130
COc1cc(NC(=O)C2COc3ccccc3O2)ccc1-c1cnco1 (racemic) [Compound 13, N-(3-methoxy-4-(oxazol-5-yl)phenyl)-2,3-dihydrobenzo[b][1,4]dioxine-2-carboxamide] | 137 | 
COc1ccc2c(c1)CC(C(=O)Nc1ccc(-c3cnco3)c(OC)c1)CO2 (racemic) [Compound 14, 6-methoxy-N-(3-methoxy-4-(oxazol-5-yl)phenyl)chromane-3-carboxamide] | 196 | 96
COc1cc(NC(=O)C2CCOc3ccccc32)ccc1-c1ccncc1 (racemic) [Compound 15, N-(3-methoxy-4-(pyridin-4-yl)phenyl)chromane-4-carboxamide] | 122 | 
COc1ccc2c(c1)CC(C(=O)Nc1ccc(-c3ccncc3)c(OC)c1)CO2 (racemic) [Compound 16, 6-methoxy-N-(3-methoxy-4-(pyridin-4-yl)phenyl)chromane-3-carboxamide] | 143 | 43
COc1cc(NC(=O)C2COc3ccccc3C2)ccc1-c1ccncc1 (racemic) [Compound 17, N-(3-methoxy-4-(pyridin-4-yl)phenyl)chromane-3-carboxamide] | 114 | 
COc1ccc2c(c1)OC(C(=O)Nc1ccc(-c3ccncc3)c(OC)c1)CO2 (racemic) [Compound 18, 7-methoxy-N-(3-methoxy-4-(pyridin-4-yl)phenyl)-2,3-dihydrobenzo[b][1,4]dioxine-2-carboxamide] | 104 | 
COc1cc(NC(=O)C2COc3ccccc3O2)ccc1-c1ccncc1 (racemic) [Compound 19, N-(3-methoxy-4-(pyridin-4-yl)phenyl)-2,3-dihydrobenzo[b][1,4]dioxine-2-carboxamide] | 110 | 
COc1ccc2c(c1)OC(C(=O)Nc1ccc(-c3cnco3)c(OC)c1)CO2 (racemic) [Compound 20, 7-methoxy-N-(3-methoxy-4-(oxazol-5-yl)phenyl)-2,3-dihydrobenzo[b][1,4]dioxine-2-carboxamide] | 113 | 
Cc1cc(NC(=O)C2COc3ccccc3C2)ccc1-c1cnco1 (racemic) [Compound 22, N-(3-methyl-4-(oxazol-5-yl)phenyl) chromane-3-carboxamide] | 120 | 
Cc1cc(-c2cnco2)ccc1NC(=O)C1COc2ccccc2C1 (racemic) [Compound 23, N-(2-methyl-4-(oxazol-5-yl)phenyl) chroman-3-carboxamide] | 116 | 
O=C(Nc1ccc(-c2cnco2)cc1OC(F)F)C1COc2ccccc2C1 (racemic) [Compound 24, N-(2-(difluoromethoxy)-4-(oxazol-5-yl)phenyl)chroman-3-carboxamide] | 126 | 
O=C(Nc1ccc(-n2cncn2)c(C(F)(F)F)c1)C1COc2ccccc2C1 (racemic) [Compound 28, N-(4-(1H-1,2,4-triazol-1-yl)-3-(trifluoromethyl)phenyl)chromane-3-carboxamide] | 118 | 
O=C(Nc1ccc(-c2nnco2)c(F)c1)C1COc2ccccc2C1 (racemic) [Compound 29, N-(3-fluoro-4-(1,3,4-oxadiazol-2-yl)phenyl)chromane-3-carboxamide] | 108 | 
Cc1ncc(-c2ccc(NC(=O)C3COc4ccccc4C3)cc2Cl)o1 (racemic) [Compound 30, N-(3-chloro-4-(2-methyloxazol-5-yl)phenyl)chromane-3-carboxamide] | 119 | 
O=C(Nc1ccc(-c2cnco2)c(Cl)c1)C1Cc2ccccc2O1 (racemic) [Compound 31, N-(3-chloro-4-(oxazol-5-yl)phenyl)-2,3-dihydrobenzofuran-2-carboxamide] | 137 | 
O=C(Nc1ccc(-c2cnco2)c(Cl)c1)C1CCOc2ccccc21 (racemic) [Compound 32, N-(3-chloro-4-(oxazol-5-yl)phenyl)chromane-4-carboxamide] | 113 | 
O=C(Nc1ccc(-c2cnco2)c(Cl)c1)C1CCc2ccccc21 (racemic) [Compound 33, N-(3-chloro-4-(oxazol-5-yl)phenyl)-2,3-dihydro-1H-indene-1-carboxamide] | 116 | 
